Experimental data published in patent US4514330A, “Carbon-7-substituted atinomycin D analogue” (Trustees of Boston University, priority 1983, dated 1985).
Converted amounts (≈) assume the structure as drawn. Read-outs that look alike come from different tables or passages of the source. Blank lines part the entries; values can stand above or below the compound they belong to.

Key:
calf thymus DNA = test: DNA binding by visible absorption and CD spectra of DNA (P)-drug complex; conditions: mole ratio DNA (P)/analogue = 10:1; 3b, 4b and 5b compared; 1.0×10^-5 M, pH 7
Text: In FIG. 1, absorption (top) and circular dichroism (bottom) spectra in 0.01 M phosphate buffer (pH7) containing EDTA (10^-5 M) and Me2 SO (5%): 3b (...), 4b (---), 5b (--). Concentration of drug in each case was 1.0×10^-5 M. In this respect, they are almost indistinguishable from the known analogue 7-methoxyactinomycin D (5b), whose structure and physical properties we have previously reported. The absorption spectra of all these analogues in aqueous buffer are also almost superimposable. […] The absorption spectrum of the analogues above 240 nm is mainly due to the electronic configuration of the tricyclic chromophore. The CD spectrum in the same wavelength region is an indicator of peptide conformation in actinomycin analogues, because it is the peptide lactone ring that confers optical activity on the nearly planar chromophore. The nature of the CD spectra (3b, 4b and 5b) asserts that in these analogues there is an identical relationship between the chromophores and peptide lactones. This relationship is very important, because during binding to DNA, AMD and some analogues are known to rely on the cooperative role between the chromophore and the peptide lactones for their highly specific DNA-binding property.
Any change in the configurations of the peptide lactones on binding to DNA is generally expressed in the CD spectra of the analogue-DNA complexes. […] The changes in the visible absorption spectra of 3b, 4b and 5b and also their CD spectra observed after adding calf thymus DNA [mole ratio of DNA (P)/analogue=10:1] are identical (FIG. 2). In FIG. 2, the absorption (top) and CD spectra of the DNA (P)-drug complex (ratio 10:1). Concentrations, buffer and line types are as in FIG. 1.

DNA [1] = test: Thermal denaturation of DNA (ΔTm), stabilization of DNA helical structure on drug binding; set-up: species or system calf thymus; conditions: for Tm (ΔTm = Tm of DNA-drug complex minus Tm of DNA): drug 1.4 × 10^-4 M, DNA (P) 1.4 × 10^-3 M, 0.01 M phosphate buffer pH 7.0, EDTA, 5% dimethyl sulfoxide
Procedure: Thermal denaturation studies were carried out according to the procedure described in J. Med. Chem., Vol. 24, p. 1052 (1981). The ΔTm values in Table II give a measure of stabilization of DNA helical structure as a consequence of drug binding.
^a ΔTm = m of DNAdrug complex minus m of DNA.
Concentraiton of drug, 1.4 × 10^-4 M; of DNA (P), 1.4 ×
10^-3 M in 0.01 M phosphate buffer (pH 7.0), 5 × 10^-3 M in
EDTA and 5% dimethyl sulfoxide.
^d Highest dose tested. These values are derived at high temperatur
(67°-75° C.) and may not always correlate with the results
of other DNA-binding studies (e.g., absorptiometric or circular dichroic).
Melting points were obtained with a Thomas-Hoover melting point apparatus at a heating rate of 2° C./min. Column chromatography was accomplished with silica gel powder (Baker No. 3405, 60-20 mesh) or acid alumina (Woelm grade 1). Limited gel-filtration work was done on Sephadex LH-20, particle size 25-100 μm (Pharmacia Fine Chemicals). Thin-layer chromatography was performed on silica gel plates (E. M. Laboratories, Inc.). Solvent systems used were (A) butanol-formic acid-H2 O (75:13:12), (B) EtOAc-acetone (3:1), and (C) Cifferri, the organic phase of the mixture EtOAc-MeOH-H2 O (20:1:20). High-performance liquid chromatography was carried out on a Varian Model 5020 gradient liquid chromatograph equipped with CD-111L chromatography data system and fitted with Varian reversed-phase C18 column with isocratic solvent systems, CH3 -CN-5 mM NH4 OAc buffer, pH 6.4 (68:32 or 62:38), pressure 80-140 atm, flow rate 1.5 mL/min, with UV-visible variable and fixed wavelength dual detectors at 254 and 466 nm. Spectra were determined on the following instruments: IR spectra were obtained with a Perkin-Elmer Model 237 Infra Cord with KBr micropellets or chloroform solutions; UV-visible spectra were obtained on a Gilford 250 spectrophotometer, which, with the addition of a base-line reference compensator (Analog Multiplexer 6064) and thermoprogrammer, auto four cell programmer and thermoelectric cell holder 2577, was used to obtain thermal denaturation curves; NMR spectra were obtained on a JOEL FQ-90-90MHZ spectrometer equipped with Fourier transform; and CD spectra were obtained on a Cary 61 spectrophotometer. All elemental analyses were within ±0.4% of the theoretical values. Actinomycin D, batch no. NCS 3053, lot L554651-0-10, was provided by Natural Products Branch, National Cancer Institute, Silver Spring, Md. Calf thymus DNA type 1 was purchased from Sigma Chemical Co.

[2] = test system: human lymphoblastic leukemic cells (CCRF-CEM); test: In vitro growth-inhibitory activity against human lymphoblastic leukemic cells (CCRF-CEM) in log phase; assay type: cell-based; conditions: for IC50: Homo sapiens
Procedure: ^b Using human lymohoblastic leukemia cells in logplastic growth.
Compounds were dissolved in Me2 So medium, final growth medium

P-388 leukemia = test: In vivo antitumor activity against P-388 lymphocytic leukemia in CDF1 mice; conditions: for % ILS (percent increase in life span) / MST (median survival time) / cure (over 55 day survivors): days 1, 5, 9; for minimal effective dose: Mus musculus, P388, ip, read-out: MED (minimum effective dose, 40% increase in life span over control)
Procedure: Studies on in vivo activity of AMD and AMD analogues were carried out with P-388 lymphocytic leukemia in CDF1 hybrid mice. The drugs were administered either daily for 4 successive days (qd 1-4) or on days 1, 5 and 9 (q4d 1, 5, 9) beginning 1 day after tumor implantation.
^a Male CDF1 (18-23 g) mice were inoculated intraperitoneally
(ip) with 10^6 P388 cells on day 0. Drugs were administered, also ip,
in 10% dimethyl sulfoxidesaline on days 1, 5 and 9. Test solutions were
kept at 0-4° C., protected from light, and the stability and
homogeneity were checked periodically by TLC and HPLC.
^b MST = median survival time.
^c % ILS = percent increase in life span.
^d Over 55 day survivors. Average of three experiments. The
^a Drugs administed ip once daily either for 4 successive days (qd
1-4) or on days 1, 5 and 9 (q4d 1, 5 9), starting 1 day after tumor
^b MED (minimum effective dose) is the dose (milligrams/kilogram)
providing an increase in life span of 40% over control in P388

normal CDF1 male mice = test: Maximum tolerated dose (LD10) in normal, tumor-free CDF1 male mice; assay type: in vivo; conditions: for MTD (maximum tolerated dose, lethal for 10% of normal mice; = LD10): deaths during 21 days
Procedure: ^c MTD (maximum tolerated dose) is the lethal dose
(milligrams/kilogram) for 10% normal CDF1 male mice (18-23 g);
were calculated from a plot of log dose vs. percent mortality. Average of
two to three experiments.
Biological Experiments. Determination of LD10 Values. Tumor-free CDF1 male mice weighing 18-23 g were given a broad range of doses of drugs in 10% dimethyl sulfoxide-saline on either days 1, 5 and 9 or on 4 successive days. Drugs were administered intraperitoneally (ip).
The maximum tolerated doses of AMD and analogues that caused deaths in only 10% of the tested animals in 21 days were recorded as MTD. The results are an average of two experiments in each. The MTD values obtained following schedules q4d 1, 5, 9 (three injections) and qd 1-4 (four injections) are recorded in Table IV. These doses are the same as LD10 (lethal dose of 10% of tumor-free animals in 21 days).

DNA [3] = conditions: known analogues; cited from earlier work
DNA [4] = test: DNA-binding mode, covalent and noncovalent (statements)
[5] = three injections ip, q4d 1, 5, 9

SMILES: COc1cc(C(=O)N[C@@H]2C(=O)N[C@H](C(C)C)C(=O)N3CCC[C@H]3C(=O)N(C)CC(=O)N(C)[C@@H](C(C)C)C(=O)O[C@@H]2C)c2nc3c(C(=O)N[C@@H]4C(=O)N[C@H](C(C)C)C(=O)N5CCC[C@H]5C(=O)N(C)CC(=O)N(C)[C@@H](C(C)C)C(=O)O[C@@H]4C)c(N)c(=O)c(C)c-3oc2c1C [Compound 5b, 7-methoxyactinomycin D, reference compound]
changes in visible absorption and CD spectra after adding calf thymus DNA (calf thymus DNA): identical

SMILES: Cc1c2oc3c(C)c(O)cc(C(=O)N[C@@H]4C(=O)N[C@H](C(C)C)C(=O)N5CCC[C@H]5C(=O)N(C)CC(=O)N(C)[C@@H](C(C)C)C(=O)O[C@@H]4C)c3nc-2c(C(=O)N[C@@H]2C(=O)N[C@H](C(C)C)C(=O)N3CCC[C@H]3C(=O)N(C)CC(=O)N(C)[C@@H](C(C)C)C(=O)O[C@@H]2C)c(N)c1=O [Compound 2b, 7-hydroxyactinomycin D, reference compound]
Tm (ΔTm = Tm of DNA-drug complex minus Tm of DNA) (DNA [1]): 6.7 ± 0.15 °C | DNA melting profile / ΔTm character of the DNA complex (DNA [1]; thermal denaturation, words): sharp and smooth | IC50 ([2]; final growth medium contained 1% Me2SO, log phase, read-out: ID50 (in vitro growth inhibition, CCRF-CEM)): 0.95 µg/mL (≈ 0.747 µM) | % ILS (percent increase in life span) (P-388 leukemia; 0.15 mg/kg ip): 10% | MST (median survival time) (P-388 leukemia; 0.15 mg/kg ip): 12 days | cure (over 55 day survivors) (P-388 leukemia; 0.15 mg/kg ip): 0/7 | % ILS (percent increase in life span) (P-388 leukemia; 0.30 mg/kg ip): 55% | MST (median survival time) (P-388 leukemia; 0.30 mg/kg ip): 17 days | cure (over 55 day survivors) (P-388 leukemia; 0.30 mg/kg ip): 0/7 | % ILS (percent increase in life span) (P-388 leukemia; 0.60 mg/kg ip): 89% | MST (median survival time) (P-388 leukemia; 0.60 mg/kg ip): 21 days | cure (over 55 day survivors) (P-388 leukemia; 0.60 mg/kg ip): 0/7 | % ILS (percent increase in life span) (P-388 leukemia; 1.20 mg/kg ip): 127% | MST (median survival time) (P-388 leukemia; 1.20 mg/kg ip): 25 days | cure (over 55 day survivors) (P-388 leukemia; 1.20 mg/kg ip): 0/7 | % ILS (percent increase in life span) (P-388 leukemia; 1.80 mg/kg ip): 136% | MST (median survival time) (P-388 leukemia; 1.80 mg/kg ip): 26 days | cure (over 55 day survivors) (P-388 leukemia; 1.80 mg/kg ip): 0/7 | % ILS (percent increase in life span) (P-388 leukemia; 3.00 mg/kg ip): 37% | MST (median survival time) (P-388 leukemia; 3.00 mg/kg ip): 15 days | cure (over 55 day survivors) (P-388 leukemia; 3.00 mg/kg ip): 0/7 | minimal effective dose (P-388 leukemia; four injections ip, qd 1-4): 0.2 mg/kg | minimal effective dose (P-388 leukemia; [5]): 0.275 mg/kg | therapeutic index: MTD/MED (P-388 leukemia; four injections ip, qd 1-4): 10 | activity in respect of % ILS, 1b versus 2b (P-388 leukemia; ip, q4d 1, 5, 9): approximately equiactive | dose higher than AMD needed for equiactivity (P-388 leukemia; ip, q4d 1, 5, 9): > 14 fold | therapeutic index: MTD/MED (P-388 leukemia; [5]): 15 | MTD (maximum tolerated dose, lethal for 10% of normal mice; = LD10) (normal CDF1 male mice; four injections ip, qd 1-4): 2.0 milligrams/kilogram | MTD dose as multiple of the MTD dose for AMD (normal CDF1 male mice; q4d 1, 5, 9 schedule): 17 fold | fold less toxic than AMD (normal CDF1 male mice; qd 1-4 schedule): 13 fold | MTD (maximum tolerated dose, lethal for 10% of normal mice; = LD10) (normal CDF1 male mice; [5]): 4.2 milligrams/kilogram

SMILES: Cc1c2oc3c(C)c([N+](=O)[O-])cc(C(=O)N[C@@H]4C(=O)N[C@H](C(C)C)C(=O)N5CCC[C@H]5C(=O)N(C)CC(=O)N(C)[C@@H](C(C)C)C(=O)O[C@@H]4C)c3nc-2c(C(=O)N[C@@H]2C(=O)N[C@H](C(C)C)C(=O)N3CCC[C@H]3C(=O)N(C)CC(=O)N(C)[C@@H](C(C)C)C(=O)O[C@@H]2C)c(N)c1=O [Compound 7-nitro-, 7-nitro-]
mode of DNA binding, same way as AMD (DNA [3]): by intercalation of the chromophore and concomitant hydrogen and hydrophobic interactions of the peptide lactones

SMILES: CCN(CC)C(=O)c1c2nc3c(C(=O)N(CC)CC)ccc(C)c3oc-2c(C)c(=O)c1N [Compound 1a, reference compound]
Tm (ΔTm = Tm of DNA-drug complex minus Tm of DNA) (DNA [1]): 0 °C | DNA-binding related activity (DNA [4]): no DNA-binding related activity

SMILES: Cc1c2oc3c(C)c(N)cc(C(=O)N[C@@H]4C(=O)N[C@H](C(C)C)C(=O)N5CCC[C@H]5C(=O)N(C)CC(=O)N(C)[C@@H](C(C)C)C(=O)O[C@@H]4C)c3nc-2c(C(=O)N[C@@H]2C(=O)N[C@H](C(C)C)C(=O)N3CCC[C@H]3C(=O)N(C)CC(=O)N(C)[C@@H](C(C)C)C(=O)O[C@@H]2C)c(N)c1=O [7-aminoactinomycin D]
mode of DNA binding, same way as AMD (DNA [3]): by intercalation of the chromophore and concomitant hydrogen and hydrophobic interactions of the peptide lactones

Now from value to compound, other results behind:

Tm (ΔTm = Tm of DNA-drug complex minus Tm of DNA) (DNA [1]): 0 °C
SMILES: CCN(CC)C(=O)c1c2nc3c(C(=O)N(CC)CC)cc(OCC(O)CO)c(C)c3oc-2c(C)c(=O)c1N (stereo not drawn) [Compound 4a]
fold less toxic compared to AMD and its analogues [2]: more than 1000 fold

Tm (ΔTm = Tm of DNA-drug complex minus Tm of DNA) (DNA [1]): 0 °C | IC50 ([2]; read-out: ID50 (the source's name)): 9 µg/mL (≈ 17.6 µM)
SMILES: CCN(CC)C(=O)c1c2nc3c(C(=O)N(CC)CC)cc(OCC4CO4)c(C)c3oc-2c(C)c(=O)c1N (stereo not drawn) [Compound 3a]
fold less toxic compared to AMD and its analogues [2]: more than 1000 fold

Tm (ΔTm = Tm of DNA-drug complex minus Tm of DNA) (DNA [1]): 0 °C
SMILES: CCN(CC)C(=O)c1c2nc3c(C(=O)N(CC)CC)cc(O)c(C)c3oc-2c(C)c(=O)c1N [Compound 2a]
